Article PMC3144702, “Structural and Functional Analysis of the Complex between Citrate and the Zinc Peptidase Carboxypeptidase A” (2011)

Key:
[1] = molecular target: T1, carboxypeptidase A (Bos taurus, UniProt P00730); assay: competitive enzyme inhibition assay with AAFP substrate, absorbance; Ki from IC50 by Cheng-Prusoff; type: biochemical
T1 construct: gene CPA1
T1 sequence (P00730 111-419): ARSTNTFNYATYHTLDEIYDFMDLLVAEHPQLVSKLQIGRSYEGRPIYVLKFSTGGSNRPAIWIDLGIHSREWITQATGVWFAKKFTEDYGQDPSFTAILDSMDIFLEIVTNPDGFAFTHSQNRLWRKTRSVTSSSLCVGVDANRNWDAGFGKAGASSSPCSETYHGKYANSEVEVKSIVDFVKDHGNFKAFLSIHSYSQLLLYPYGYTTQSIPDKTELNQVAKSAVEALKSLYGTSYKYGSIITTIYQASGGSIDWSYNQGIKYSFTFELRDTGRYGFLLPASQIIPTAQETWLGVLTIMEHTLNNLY

[2] = molecular target: T1, carboxypeptidase A; assay: X-ray crystal structure at […] Å; Ki from competitive inhibition assay with AAFP substrate; type: biochemical

`O=C(O)C[C@@H](Cc1ccccc1)C(=O)O` [BzlSA, benzylsuccinic acid] gave a Ki [1] of 0.52 µM.
In the case of `O=C(O)CC(O)(CC(=O)O)C(=O)O` [citrate], the Ki [2] is reported as 5000 µM.
